Data on two compounds can be found in patent US20190076555A1, “TUMOR TARGETING NANOAGENT FOR IMAGING AND FLUORESCENT GUIDED RESECTION OF TUMORS” (priority 2017, published 2019).

Ends that are not written are not given here.

A short description of data set [1]: Absorbance spectra of free and conjugated ICG (600-900 nm). To be noted: PBS pH7.4. In kind it is physicochemical. As for the experimental part: Absorbance of free and conjugated ICG was measured within a wavelength range of 600-900 nm. Stock solution of free ICG was prepared in DMSO at a concentration of 25 mM and sample was diluted in PBS, pH7.4. FIGS. 3A-3J illustrate absorbance spectra of free and conjugated ICG.

Another data set concerns U87 MG glioma cells. In words: Competition with binding of NIA to glioma cells by flow cytometry. To be noted: 5 μM NIA (100%) competed with 125 μM competitor. More on the design: species or system human.

Description for U87 MG glioma cells: FIG. 11C illustrates flow cytometry histogram for CTX (not fluorescent) competing with binding of NIA (content 5 μM CTXtot) at various concentrations of competing CTX. The following combinations were tested: PBS no ligand (solid line), NIA+125 μM CTX (dashed line), NIA+50 μM CTX (dotdashed line), NIA+5 μM (longdashed line), and NIA 5 μM (dash-twodotted line). […] The abscissa intercept indicates the maximum level of fluorescence decrease due to competition at extrapolated infinite concentrations of CTX.
The saturation curves in the insets were calculated as average fluorescence intensities as function of overall CTX, (CTXtot), concentrations. […] Each molecule of NIA contains on average 7.75 groups of CTX. […] Since the inhibitors are not fluorescence labeled, the inhibition would be indicated by the reduction of MFI if NIA is the competed ligand.

For the compound `CC1(C)C(/C=C/C=C/C=C/C=C2\N(CCCCS(=O)(=O)O)c3ccc4ccccc4c3C2(C)C)=[N+](CCCCS(=O)(=O)[O-])c2ccc3ccccc3c21` [free ICG, Indocyanine Green], the figures for the maximum absorbance wavelength in data set [1] (high concentration 100 μM ICG) and in data set [1] (lower concentration 3 μM ICG) were 695 nm and 780 nm, respectively. For “P/LLL(40%): polymalic acid with tri-leucine (40%), not fluorescence labelled competitor (Leu-Leu-Leu; not fully specified)”, in the data set with U87 MG glioma cells, the “decrease in mean fluorescence intensity of NIA” value is reported as 41-46%.
